Measurements as given in the supplement of paper PMC10883282.

Legend:
Assay in all cases: relative viability vs DMSO control (72 h) (fraction); higher = more viable cells
G401 = tested on: G401
In short: (§1)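 Sarcoma cell lines went into 384-well plates at densities chosen to reach 80–90% confluence. After 24 h, each well received 2.5 µl of serially diluted compound, with source plates running from 10 mM to 0.0002 mM, and the plates were kept 72 h at 37 °C, 5% CO2, alongside 0.1% DMSO vehicle and a 5 µM positive control. Relative viability was derived from ATPLite readings as percent growth and averaged over up to triplicate wells. The data were then rescaled so that 1 stands for full and 0 for none.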

SK-ES-1 = tested on: SK-ES-1
In short: as §1

SYO-1 = tested on: SYO-1
In short: as §1

HS729 = tested on: HS729
In short: as §1

SW872 = tested on: SW872
In short: as §1

SK-LMS-1 = tested on: SK-LMS-1
In short: as §1

RD = tested on: RD
In short: as §1

VA-ES-BJ = tested on: VA-ES-BJ
In short: as §1

MES-SA = tested on: MES-SA
In short: as §1

SW684 = tested on: SW684
In short: as §1

KHOS-NP = tested on: KHOS-NP
In short: as §1

A204 = tested on: A204
In short: as §1

CC[C@@H]1C(=O)N(C)c2cnc(Nc3ccc(C(=O)N[C@H]4CC[C@H](N5CCN(CC6CC6)CC5)CC4)cc3OC)nc2N1C(C)C [Volasertib]
Details | relative viability
A204, 0.00017 µM | 1.13
A204, 0.00051 µM | 1.1
A204, 0.00152 µM | 1.07
A204, 0.00457 µM | 1.1
A204, 0.01372 µM | 1.08
A204, 0.04115 µM | 0.858
A204, 0.1235 µM | 0.669
A204, 0.3704 µM | 0.418
A204, 1.111 µM | 0.253
A204, 3.333 µM | 0.174
A204, 10 µM | 0.0197
G401, 0.00017 µM | 1.01
G401, 0.00051 µM | 1.03
G401, 0.00152 µM | 1.05
G401, 0.00457 µM | 1.03
G401, 0.01372 µM | 1.02
G401, 0.04115 µM | 0.845
G401, 0.1235 µM | 0.5129
G401, 0.3704 µM | 0.427
G401, 1.111 µM | 0.338
G401, 3.333 µM | 0.243
G401, 10 µM | 0.00683
HS729, 0.00017 µM | 0.954
HS729, 0.00051 µM | 0.995
HS729, 0.00152 µM | 0.981
HS729, 0.00457 µM | 0.954
HS729, 0.01372 µM | 0.87
HS729, 0.04115 µM | 0.685
HS729, 0.1235 µM | 0.622
HS729, 0.3704 µM | 0.657
HS729, 1.111 µM | 0.641
HS729, 3.333 µM | 0.612
HS729, 10 µM | 0.0591
KHOS-NP, 0.00017 µM | 1.07
KHOS-NP, 0.00051 µM | 1.06
KHOS-NP, 0.00152 µM | 1.07
KHOS-NP, 0.00457 µM | 1.08
KHOS-NP, 0.01372 µM | 1.09
KHOS-NP, 0.04115 µM | 1.01
KHOS-NP, 0.1235 µM | 0.471
KHOS-NP, 0.3704 µM | 0.276
KHOS-NP, 1.111 µM | 0.222
KHOS-NP, 3.333 µM | 0.184
KHOS-NP, 10 µM | 0.0214
MES-SA, 0.00017 µM | 0.938
MES-SA, 0.00051 µM | 0.966
MES-SA, 0.00152 µM | 0.936
MES-SA, 0.00457 µM | 0.932
MES-SA, 0.01372 µM | 0.924
MES-SA, 0.04115 µM | 0.637
MES-SA, 0.1235 µM | 0.173
MES-SA, 0.3704 µM | 0.0889
MES-SA, 1.111 µM | 0.0861
MES-SA, 3.333 µM | 0.072
MES-SA, 10 µM | 0.0076
RD, 0.00017 µM | 1.132
RD, 0.00051 µM | 1.12
RD, 0.00152 µM | 1.129
RD, 0.00457 µM | 1.14
RD, 0.01372 µM | 1.07
RD, 0.04115 µM | 0.363
RD, 0.1235 µM | 0.212
RD, 0.3704 µM | 0.18
RD, 1.111 µM | 0.169
RD, 3.333 µM | 0.119
RD, 10 µM | 0.0206
SK-ES-1, 0.00017 µM | 1.09
SK-ES-1, 0.00051 µM | 1.1
SK-ES-1, 0.00152 µM | 1.08
SK-ES-1, 0.00457 µM | 1.1
SK-ES-1, 0.01372 µM | 1.05
SK-ES-1, 0.04115 µM | 0.495
SK-ES-1, 0.1235 µM | 0.0483
SK-ES-1, 0.3704 µM | 0.0522
SK-ES-1, 1.111 µM | 0.0871
SK-ES-1, 3.333 µM | 0.114
SK-ES-1, 10 µM | 0.0116
SK-LMS-1, 0.00017 µM | 1.04
SK-LMS-1, 0.00051 µM | 1.01
SK-LMS-1, 0.00152 µM | 1.05
SK-LMS-1, 0.00457 µM | 1.04
SK-LMS-1, 0.01372 µM | 1
SK-LMS-1, 0.04115 µM | 0.551
SK-LMS-1, 0.1235 µM | 0.492
SK-LMS-1, 0.3704 µM | 0.453
SK-LMS-1, 1.111 µM | 0.459
SK-LMS-1, 3.333 µM | 0.3806
SK-LMS-1, 10 µM | 0.0152
SW684, 0.00017 µM | 1.19
SW684, 0.00051 µM | 1.21
SW684, 0.00152 µM | 1.22
SW684, 0.00457 µM | 1.17
SW684, 0.01372 µM | 1.13
SW684, 0.04115 µM | 0.694
SW684, 0.1235 µM | 0.675
SW684, 0.3704 µM | 0.731
SW684, 1.111 µM | 0.675
SW684, 3.333 µM | 0.6025
SW684, 10 µM | 0.0835
SW872, 0.00017 µM | 1.06
SW872, 0.00051 µM | 1.03
SW872, 0.00152 µM | 1.05
SW872, 0.00457 µM | 1.08
SW872, 0.01372 µM | 1.06
SW872, 0.04115 µM | 0.623
SW872, 0.1235 µM | 0.437
SW872, 0.3704 µM | 0.269
SW872, 1.111 µM | 0.176
SW872, 3.333 µM | 0.0454
SW872, 10 µM | 0.00513
SYO-1, 0.00017 µM | 0.966
SYO-1, 0.00051 µM | 0.974
SYO-1, 0.00152 µM | 0.958
SYO-1, 0.00457 µM | 0.912
SYO-1, 0.01372 µM | 0.549
SYO-1, 0.04115 µM | 0.352
SYO-1, 0.1235 µM | 0.311
SYO-1, 0.3704 µM | 0.131
SYO-1, 1.111 µM | 0.00893
SYO-1, 3.333 µM | -0.0446
SYO-1, 10 µM | -0.0423
VA-ES-BJ, 0.00017 µM | 1.04
VA-ES-BJ, 0.00051 µM | 1.04
VA-ES-BJ, 0.00152 µM | 1.07
VA-ES-BJ, 0.00457 µM | 1.06
VA-ES-BJ, 0.01372 µM | 1.04
VA-ES-BJ, 0.04115 µM | 0.486
VA-ES-BJ, 0.1235 µM | 0.234
VA-ES-BJ, 0.3704 µM | 0.108
VA-ES-BJ, 1.111 µM | 0.0943
VA-ES-BJ, 3.333 µM | 0.074
VA-ES-BJ, 10 µM | -0.00633
